Ki data for one compound are collected here from BindingDB's records for doi:10.1021/jm00008a010 (1995).

pKi: −log10 of the molar value.

The test is described as follows: In vitro binding affinity towards 5-hydroxytryptamine 1D receptor beta by using [3H]5-HT as radioligand.

Consider `CCCNC1CCc2cccc(OS(=O)(=O)C(F)(F)F)c2C1` (stereo unspecified) [Trifluoro-methanesulfonic acid 7-propylamino-5,6,7,8-tetrahydro-naphthalen-1-yl ester], for which the pKi is 6.77.
